Reference: paper PMC6013238, “Development of novel NEMO-binding domain mimetics for inhibiting IKK/NF-κB activation” (PLoS Biology, 2018)
Several values for one entry are separate records, joined by “and”; a condition that tells them apart may be missing. Equal entries are not always repeated.

What was measured:
NF-κB target genes = experiment: qRT-PCR of NF-κB target genes in LPS-stimulated Raw 264.7 cells; assay type: cell-based, mouse; conditions: LPS 1 μg/ml 2 h; for Effect on transcription of NF-κB target genes (COX-2, IL-6, IL-1β, TNF-α, IκBα, iNOS): 50 μM
NF-κB activation = experiment: NF-κB firefly luciferase reporter assay, TNF-α-stimulated stably transfected HEK293 cells; assay type: cell-based, human; conditions: for NF-κB luciferase activity normalized to control: control = 100; for NF-κB luciferase activity normalized to vehicle: Fig 2C, derivatives at 100 μM, TNF-α 10 ng/ml 3 h, vehicle = 100, single experiments
Protocol: To determine whether the small molecules identified by the in silico screening inhibit NF-κB activation, a HEK293 cell line stably expressing a luciferase reporter driven by a synthetic, NF-κB-dependent promoter was utilized. To induce NF-κB activation, cells were treated with 10 ng/mL of TNF-α and harvested 3 h post treatment for analysis of luciferase activity. […] To determine whether ZINC12909780 inhibits NF-κB in a dose-dependent manner, concentrations were tested at 0, 6.25, 25, 50, and 100 μM.
Luciferase activity was normalized to untreated stimulated control cells. […] Cell viability was calculated by normalizing to untreated cells. […] Underlying data can be found in S1 Data.
HEK293 cells stably transfected with luciferase reporter plasmid driven by NF-κB were seeded in 96-well plates in triplicate and pretreated with DMSO or varying small molecules at indicated concentration for 30 min, followed by the stimulation of 10 ng/ml of TNF-α for 3 h. Cells were washed with PBS once and harvested in Passive Lysis Buffer (Promega, Madison, WI). Luciferase assay (Promega) was performed by using a luminometer according to the manufacturer’s instructions.

[1] = test system: p-IκBα (IKK kinase activity); experiment: Western blot of p-IκBα after TNF-α in HEK293 cells; assay type: cell-based, human; conditions: 100 μM, 30 min pretreatment, TNF-α 10 ng/ml 0, 5, 10 min
Protocol: To confirm that the NBD mimetics reduce IKK kinase activity, phosphorylation of IκBα by IKK in response to 10 ng/ml of TNF-α was measured by western blot at 0, 5, and 10 min after stimulation. […] To determine whether the mimetics also reduce NF-κB DNA binding activity, electrophoretic mobility shift assay (EMSA) was conducted both in vitro and in vivo. […] The addition of acetonitrile increased the stability of both ZINC compounds, especially ZINC 5 (Fig 3D).
Fig 3 Two identified small molecules reduce NF-κB DNA binding activity in vivo and in vitro. (A) Levels of p-IκBα with or without treatment in response to TNF-α were determined by western blot analysis. HEK293 cells were pretreated with DMSO, ZINC12909780 (100 μM), and ZINC5 (100 μM) for 30 min followed by the stimulation of 10 ng/ml of TNF-α for 0, 5, and 10 min. […]
Cell lysate was prepared in RIPA buffer (20 mM Tris-HCl [pH 7.5], 150 mM NaCl, 1 mM Na^2EDTA, 1 mM EGTA, 1% NP-40, 1% sodium deoxycholate, 2.5 mM sodium pyrophosphate, 1 mM beta-glycerophosphate, 1 mM Na3VO4, and 1 μg/ml leupeptin), supplemented with 1X protease inhibitor cocktails (MilliporeSigma, St. Louis, MO) and 1X Halt phosphatase inhibitor cocktail (ThermoFisher, Waltham, MA). Protein concentrations were determined by Lowry protein assays, and 30 μg of protein was resolved by MINI-PROTEAN TGX 4%–15% SDS-PAGE gels. […]

[2] = Fig 4C, IKKi VII 2 μM, 8K-NBD 200 μM, SR compounds 50 μM, relative to no LPS

O=C(CNc1ccc(Cl)cn1)NCCc1cccc(Br)c1 [SR12343]
COX2 mRNA expression (qRT-PCR) (NF-κB target genes; [2]): 201.141 and 209.385 | IL6 mRNA expression (qRT-PCR) (NF-κB target genes; [2]): 204.868 and 211.79 | IL-1b mRNA expression (qRT-PCR) (NF-κB target genes; [2]): 270.981 and 273.172 | TNFa mRNA expression (qRT-PCR) (NF-κB target genes; [2]): 84.4509 and 85.4634 | iNOS mRNA expression (qRT-PCR) (NF-κB target genes; [2]): 6.825 and 6.083 | ikBa mRNA expression (qRT-PCR) (NF-κB target genes; [2]): 15.399 and 14.5661 | Effect on transcription of NF-κB target genes (COX-2, IL-6, IL-1β, TNF-α, IκBα, iNOS) (NF-κB target genes): significant inhibition on COX-2, IL-6, and iNOS expression

O=C(CNCCc1cc(F)cc(F)c1)Nc1ccc(Cl)cn1 [SR12460]
COX2 mRNA expression (qRT-PCR) (NF-κB target genes; [2]): 38.9806 and 69.3201 and 44.3249 | IL-1b mRNA expression (qRT-PCR) (NF-κB target genes; [2]): 108.936 | iNOS mRNA expression (qRT-PCR) (NF-κB target genes; [2]): 2.289 and 2.778 | Effect on transcription of NF-κB target genes (COX-2, IL-6, IL-1β, TNF-α, IκBα, iNOS) (NF-κB target genes): significantly inhibit the transcription of all NF-κB target genes tested

Nc1ncccc1C(=O)OCC(=O)Nc1ccc(Cl)cc1F [ZINC12909780]
NF-κB luciferase activity normalized to control (NF-κB activation; Fig 2B, 6.25 μM (log 0.79588)): 96.2175 and 102.44 and 115.164 | NF-κB luciferase activity normalized to control (NF-κB activation; Fig 2B, 25 μM (log 1.39794)): 93.2591 and 96.1802 and 73.5256 | Level of p-IκBα following TNF-α stimulation [1]: less robust reduction

O=C(COC(=O)Cc1ccccc1F)Nc1ccc(Cl)cn1 [ZINC5]
NF-κB luciferase activity normalized to vehicle (NF-κB activation): 58.79 and 64.16 and 89.81 and 46.87 and 48.05 | NF-κB luciferase activity normalized to vehicle (NF-κB activation; listed as Zinc5): lowered NF-κB activity robustly | NF-κB luciferase activity normalized to control (NF-κB activation; Fig 2E, 25 μM): 78.88 and 74.23 and 94.1 and 85.57 and 85.27 | NF-κB luciferase activity normalized to control (NF-κB activation; Fig 2E, 50 μM): 78.97 and 56.84 and 56.56 and 66.34 | NF-κB luciferase activity normalized to control (NF-κB activation; Fig 2E, 100 μM): 40.8 and 50.51 and 60.75 and 33.05 and 42.78 | Level of p-IκBα following TNF-α stimulation [1]: reduced the level of p-IκBα
